“Also recorded” adds a separate entry of the source. Where two headings read alike, the source gives them in different places.
Tests used:
P. falciparum 3D7 strain = experiment: P. falciparum 3D7 growth inhibition, DAPI imaging (HTS screen); format: cell-based; details: Plasmodium falciparum
Experimental: The P. falciparum 3D7 strain was used for the primary screen.
For the screening of the chemical library, a validated high throughput screening (HTS) method was used as reported by Duffy and Avery. In brief, intra-erythrocyte P. falciparum 3D7 parasites incubated with the compounds for 72 hours were stained with 4′-6-diamidino-2-phenylindole (DAPI) and imaged using a high throughput confocal imaging system. To ascertain inhibition of parasite growth, images of fluorescent parasites were translated, using a mathematical algorithm, into a numerical output of classified spots (parasites) as determined by fluorescence size and intensity.
EC50 and CC50 values were calculated for compounds which presented an Emax plateau using GraphPad Prism.

[1] = test system: P. falciparum NF54 strain; experiment: P. falciparum NF54 growth assay, 3H-hypoxanthine incorporation (hit validation); format: cell-based, Plasmodium falciparum; details: for EC50: Plasmodium falciparum
Experimental: Synthesized compounds were tested in an alternative assay, in which ^3H-hypoxanthine incorporation was measured in the chloroquine-sensitive strain NF54 (Values were measured in duplicate, 12 points/EC50).
Cultivation of Plasmodium falciparum: Plasmodium falciparum strain NF54 was obtained from the Research and Reference Reagent Resource Center (MR4) (Manassas, VA, USA). The two strains were maintained in vitro by a modification of the method of Trager and Jensen. Cultures were maintained in A positive (A^+) human erythrocytes suspended at 5% hematocrit in complete medium. […] Parasite growth and morphology were observed daily using thin smears at 100X (oil immersion) magnification following staining with Giemsa stain.
Plasmodium falciparum growth assay: The protocol assesses the compound efficacy against the growth of P. falciparum in vitro.
All cultures used in the study are albumax II adopted. […]
Following the incubation period, the plates were harvested with a FilterMate cell harvester (Perkin Elmer) onto unifilter-96 GF/B plates, washed with distilled water to remove excess radiochemical and plates were kept for drying 37°C overnight or 60°C for 1 hr. Fifty µL of Microscint scintillation cocktail (Microscint-High Efficiency LSC-Cocktail; Perkin Elmer) added in the unifilter-96 GF/B plates and kept for 15-20 min. The plates were counted in a Top Count NXT microplate scintillation and luminescence counter (Perkin Elmer). The mean values for [^3H]-hypoxanthine incorporation in parasitized control and non-parasitized control erythrocytes were calculated.
Assay data were analysed using Graph pad prism ver.5 software. A variable sigmoid dose response curve is plotted keeping log concentrations at X-axis and % inhibition at Y-axis.

[2] = Chemical stability on standing at room temperature; format: physicochemical

EC50 (P. falciparum 3D7 strain; P. falciparum 3D7 strain, DAPI imaging, HTS screen, library sample, read-out: EC50 (3D7)): 602 nM
EC50 (P. falciparum 3D7 strain; negative logarithm of the molar EC50, 3D7, read-out: pEC50 (3D7) (converted)): 631 nM
EC50 ([1]; NF54, heading bounds of Figure 8: not reconfirming / reconfirming / newly synthesized compounds, read-out: EC50 (bound in Figure 8)): > 1000 nM
EC50 ([1]; P. falciparum NF54 strain, 3H-hypoxanthine incorporation, newly synthesized sample, read-out: EC50 (NF54)): 4700 nM
EC50 ([1]; negative logarithm of the molar EC50, NF54, read-out: pEC50 (NF54) (converted)): 5010 nM
Compound: Cc1c(CO)c2ccccc2n1Cc1ccccc1C#N [Compound 1, 2-((3-(hydroxymethyl)-2-methyl-1H-indol-1-yl)methyl)benzonitrile]
Comment (activity in words on retest) ([1]; hit validation, NF54 confirmatory assay): Weakly active/unstable
Chemical stability [2]: significantly degraded; also recorded: unstable
